Several values for one entry are separate records, joined by “and”; a condition that tells them apart may be missing. Equal values may be shown once. Inconclusive results and toxic doses are left out.
Tested on: L1210 leukemia ip in BDF1 mice, survival T/C
Assay: NCI In Vivo Anticancer Drug Screen. Data for tumor model L1210 Leukemia (intraperitoneal) in B6D2F1 (BDF1) mice
Conditions: higher = longer survival
In short: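 Mice bearing the transplanted tumor received compound or vehicle. Survival of the treated group was divided by that of the vehicle-treated control group to give the ratio.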

[1] = endpoint: mean survival time, dose: 100.0 mg/kg/injection, schedule: Q04DX003 (ip), vehicle: saline
[2] = endpoint: mean survival time, dose: 200.0 mg/kg/injection, schedule: Q04DX003 (ip), vehicle: saline
[3] = endpoint: mean survival time, dose: 400.0 mg/kg/injection, schedule: Q04DX003 (ip), vehicle: saline
[4] = endpoint: mean survival time, dose: 50.0 mg/kg/injection, schedule: Q04DX002 (ip), vehicle: saline
[5] = endpoint: mean survival time, dose: 100.0 mg/kg/injection, schedule: Q04DX002 (ip), vehicle: saline
[6] = endpoint: mean survival time, dose: 200.0 mg/kg/injection, schedule: Q04DX002 (ip), vehicle: saline
[7] = endpoint: mean survival time, dose: 100.0 mg/kg/injection, schedule: Q01DX009 (ip), vehicle: Klucel (hydroxypropylcellulose) (HPC)
[8] = endpoint: mean survival time, dose: 200.0 mg/kg/injection, schedule: Q01DX009 (ip), vehicle: Klucel (hydroxypropylcellulose) (HPC)
[9] = endpoint: mean survival time, dose: 400.0 mg/kg/injection, schedule: Q01DX009 (ip), vehicle: Klucel (hydroxypropylcellulose) (HPC)
[10] = endpoint: mean survival time, dose: 50.0 mg/kg/injection, schedule: Q01DX009 (ip), vehicle: saline with Tween-80
[11] = endpoint: mean survival time, dose: 100.0 mg/kg/injection, schedule: Q01DX009 (ip), vehicle: saline with Tween-80
[12] = endpoint: mean survival time, dose: 100.0 mg/kg/injection, schedule: Q04DX003 (ip), vehicle: saline with Tween-80
[13] = endpoint: mean survival time, dose: 200.0 mg/kg/injection, schedule: Q04DX003 (ip), vehicle: saline with Tween-80
[14] = endpoint: mean survival time, dose: 12.5 mg/kg/injection, schedule: Q01DX009 (ip), vehicle: saline
[15] = endpoint: mean survival time, dose: 25.0 mg/kg/injection, schedule: Q01DX009 (ip), vehicle: saline
[16] = endpoint: mean survival time, dose: 200.0 mg/kg/injection, schedule: Q01DX009 (ip), vehicle: saline with Tween-80
[17] = endpoint: mean survival time, dose: 50.0 mg/kg/injection, schedule: Q01DX001 (ip), vehicle: carboxymethylcellulose (CMC)
[18] = endpoint: mean survival time, dose: 100.0 mg/kg/injection, schedule: Q01DX001 (ip), vehicle: carboxymethylcellulose (CMC)
[19] = endpoint: mean survival time, dose: 200.0 mg/kg/injection, schedule: Q01DX001 (ip), vehicle: carboxymethylcellulose (CMC)
[20] = endpoint: mean survival time, dose: 400.0 mg/kg/injection, schedule: Q01DX001 (ip), vehicle: carboxymethylcellulose (CMC)
[21] = endpoint: mean survival time, dose: 400.0 mg/kg/injection, schedule: Q01DX009 (ip), vehicle: saline with Tween-80
[22] = endpoint: mean survival time, dose: 200.0 mg/kg/injection, schedule: Q04DX003 (ip), vehicle: Klucel (hydroxypropylcellulose) (HPC)
[23] = endpoint: mean survival time, dose: 400.0 mg/kg/injection, schedule: Q04DX003 (ip), vehicle: Klucel (hydroxypropylcellulose) (HPC)
[24] = endpoint: mean survival time, dose: 400.0 mg/kg/injection, schedule: Q04DX003 (ip), vehicle: saline with Tween-80
[25] = endpoint: mean survival time, dose: 6.25 mg/kg/injection, schedule: Q01DX009 (ip), vehicle: saline with Tween-80
[26] = endpoint: mean survival time, dose: 12.5 mg/kg/injection, schedule: Q01DX009 (ip), vehicle: saline with Tween-80
[27] = endpoint: mean survival time, dose: 25.0 mg/kg/injection, schedule: Q01DX009 (ip), vehicle: saline with Tween-80

Compound: C[As](C)Sc1ncccn1
- T/C (endpoint: mean survival time, dose: 6.25 mg/kg/injection, schedule: Q01DX009 (ip), vehicle: Klucel (hydroxypropylcellulose) (HPC)): 100 % of control
- T/C (endpoint: mean survival time, dose: 12.5 mg/kg/injection, schedule: Q01DX009 (ip), vehicle: Klucel (hydroxypropylcellulose) (HPC)): 103 % of control
- T/C (endpoint: mean survival time, dose: 12.5 mg/kg/injection, schedule: Q04DX003 (ip), vehicle: Klucel (hydroxypropylcellulose) (HPC)): 98 % of control
- T/C (endpoint: mean survival time, dose: 25.0 mg/kg/injection, schedule: Q04DX003 (ip), vehicle: Klucel (hydroxypropylcellulose) (HPC)): 95 % of control

Compound: COc1cccc2c1C(=O)c1c(O)c3c(c(O)c1C2=O)CC(O)(C(=O)CO)CC3OC1CC(N)C(O)C(C)O1 (stereo not drawn)
- T/C (endpoint: mean survival time, dose: 0.5 mg/kg/injection, schedule: Q01DX008 (ip), vehicle: saline): 151 % of control
- T/C (endpoint: mean survival time, dose: 1.0 mg/kg/injection, schedule: Q01DX008 (ip), vehicle: saline): 158 % of control
- T/C (endpoint: mean survival time, dose: 2.0 mg/kg/injection, schedule: Q01DX008 (ip), vehicle: saline): 209 % of control
- T/C (endpoint: mean survival time, dose: 4.0 mg/kg/injection, schedule: Q01DX008 (ip), vehicle: saline): 98 % of control
- T/C (endpoint: median survival time, dose: 4.0 mg/kg/injection, schedule: Q01DX005 (ip), vehicle: water): 121 % of control
- T/C (endpoint: median survival time, dose: 6.0 mg/kg/injection, schedule: Q01DX005 (ip), vehicle: other): 115 % of control
- T/C (endpoint: median survival time, dose: 11.0 mg/kg/injection, schedule: Q01DX005 (ip), vehicle: other): 123 % of control
- T/C (endpoint: median survival time, dose: 11.0 mg/kg/injection, schedule: Q01DX005 (ip), vehicle: water): 177 % of control
- T/C (endpoint: median survival time, dose: 11.0 mg/kg/injection, schedule: Q04DX003 (ip), vehicle: water): 115 % of control
- T/C (endpoint: median survival time, dose: 16.0 mg/kg/injection, schedule: Q01DX005 (ip), vehicle: other): 123 % of control
- T/C (endpoint: median survival time, dose: 19.0 mg/kg/injection, schedule: Q01DX005 (ip), vehicle: water): 177 % of control
- T/C (endpoint: median survival time, dose: 31.0 mg/kg/injection, schedule: Q01DX005 (ip), vehicle: water): 155 % of control
- T/C (endpoint: median survival time, dose: 31.0 mg/kg/injection, schedule: Q04DX003 (ip), vehicle: water): 121 % of control
- T/C (endpoint: median survival time, dose: 51.6 mg/kg/injection, schedule: Q01DX005 (ip), vehicle: water): 152 % of control
- T/C (endpoint: median survival time, dose: 52.0 mg/kg/injection, schedule: Q04DX003 (ip), vehicle: water): 194 % of control
- T/C (endpoint: median survival time, dose: 87.0 mg/kg/injection, schedule: Q04DX003 (ip), vehicle: water): 157 % of control and 172 % of control
- T/C (endpoint: median survival time, dose: 145.0 mg/kg/injection, schedule: Q04DX003 (ip), vehicle: water): 110 % of control
- T/C (endpoint: median survival time, dose: 242.0 mg/kg/injection, schedule: Q04DX003 (ip), vehicle: water): 89 % of control

Compound: COc1cc(OCc2ccccc2)c([N+](=O)[O-])cc1OC
- T/C [1]: 116 % of control
- T/C [2]: 124 % of control
- T/C [3]: 112 % of control

Compound: Cc1cc(C)nc(NCCCCC(N)C(=O)O)n1 (stereo not drawn)
- T/C [4]: 104 % of control
- T/C [5]: 104 % of control
- T/C [6]: 101 % of control

Compound: COc1cc(/C=N/N=C(\C)c2ccc3ccccc3c2)cc(OC)c1OC
- T/C [7]: 90 % of control
- T/C [8]: 94 % of control
- T/C [9]: 100 % of control

Compound: Nc1ccc2sc3ccccc3c2c1
- T/C [10]: 106 % of control
- T/C [11]: 105 % of control
- T/C [12]: 95 % of control
- T/C [13]: 104 % of control

Compound: CN1Cc2cc3cc(c2O)C[N+](C)(C)Cc2c(Cl)c(c(Cl)c(c2Cl)C[N+](C)(C)C3)C1
- T/C [14]: 98 % of control
- T/C (endpoint: mean survival time, dose: 12.5 mg/kg/injection, schedule: Q04DX003 (ip), vehicle: saline): 97 % of control
- T/C [15]: 98 % of control
- T/C (endpoint: mean survival time, dose: 25.0 mg/kg/injection, schedule: Q04DX003 (ip), vehicle: saline): 97 % of control
- T/C (endpoint: mean survival time, dose: 50.0 mg/kg/injection, schedule: Q04DX003 (ip), vehicle: saline): 92 % of control

Compound: O=C(NC1CCCCC1)c1ccc(Cl)cc1Cl
- T/C [10]: 100 % of control
- T/C [11]: 100 % of control
- T/C [16]: 96 % of control

Compound: O=[N+]([O-])c1ccccc1SSc1ccccc1[N+](=O)[O-]
- T/C [17]: 105 % of control
- T/C [18]: 94 % of control
- T/C [11]: 95 % of control
- T/C [19]: 109 % of control
- T/C [16]: 98 % of control
- T/C [20]: 100 % of control
- T/C [21]: 98 % of control

Compound: CCSc1nc2nccnc2c(=O)[nH]1
- T/C [7]: 98 % of control
- T/C (endpoint: mean survival time, dose: 100.0 mg/kg/injection, schedule: Q04DX003 (ip), vehicle: Klucel (hydroxypropylcellulose) (HPC)): 97 % of control
- T/C [8]: 102 % of control
- T/C [22]: 92 % of control
- T/C [9]: 102 % of control
- T/C [23]: 92 % of control

Compound: CC(=O)Oc1ccc(C2CC(=O)OC2=O)cc1 (stereo not drawn)
- T/C [11]: 105 % of control
- T/C [12]: 92 % of control
- T/C [16]: 97 % of control
- T/C [13]: 91 % of control
- T/C [21]: 87 % of control
- T/C [24]: 92 % of control

Compound: Nc1ccccc1SC1CC(=O)N(c2ccc(Cl)cc2)C1=O (stereo not drawn)
- T/C [11]: 91 % of control
- T/C [12]: 89 % of control
- T/C [16]: 88 % of control
- T/C [13]: 101 % of control
- T/C [21]: 98 % of control
- T/C [24]: 97 % of control

Compound: Cc1cc(NS(=O)(=O)c2ccc(N)cc2)sn1
- T/C [1]: 87 % of control
- T/C [2]: 92 % of control
- T/C [3]: 97 % of control

Compound: Clc1ccc2n[nH]c(Cl)c2c1
- T/C [14]: 95 % of control
- T/C [15]: 101 % of control
- T/C (endpoint: mean survival time, dose: 50.0 mg/kg/injection, schedule: Q01DX009 (ip), vehicle: saline): 98 % of control
- T/C (endpoint: mean survival time, dose: 100.0 mg/kg/injection, schedule: Q01DX001 (ip), vehicle: saline): 92 % of control
- T/C (endpoint: mean survival time, dose: 100.0 mg/kg/injection, schedule: Q01DX009 (ip), vehicle: saline): 96 % of control
- T/C (endpoint: mean survival time, dose: 200.0 mg/kg/injection, schedule: Q01DX001 (ip), vehicle: saline): 92 % of control
- T/C (endpoint: mean survival time, dose: 400.0 mg/kg/injection, schedule: Q01DX001 (ip), vehicle: saline): 102 % of control

Compound: CC(=O)Nc1ccc2c(c1)Cc1cc(NC=O)ccc1-2
- T/C [17]: 101 % of control
- T/C [18]: 95 % of control
- T/C [11]: 102 % of control
- T/C [1]: 97 % of control
- T/C [19]: 101 % of control
- T/C [16]: 95 % of control
- T/C [2]: 93 % of control
- T/C [20]: 101 % of control
- T/C [21]: 98 % of control
- T/C [3]: 95 % of control

Compound: COc1cccc(C2=CCCCC2)c1
- T/C [17]: 96 % of control
- T/C [18]: 93 % of control
- T/C [19]: 96 % of control
- T/C [20]: 98 % of control

Compound: CCC(C=NCCBr)(CCC(=O)OC)CCC(=O)OC
- T/C [5]: 102 % of control
- T/C [6]: 102 % of control
- T/C (endpoint: mean survival time, dose: 400.0 mg/kg/injection, schedule: Q04DX002 (ip), vehicle: saline): 112 % of control

Compound: COC1(c2ccccc2)ON=C(c2ccccc2)C=C1c1ccccc1 (stereo not drawn)
- T/C [1]: 93 % of control
- T/C [2]: 91 % of control
- T/C [3]: 99 % of control

Compound: O=C(C=C(C(F)(F)F)C(F)(F)F)c1cccc([N+](=O)[O-])c1
- T/C [25]: 101 % of control
- T/C [26]: 103 % of control
- T/C [27]: 97 % of control

Compound: COC1C(C)(C)C2(C)CC[N+]1(Cc1ccccc1)C2 (stereo not drawn)
- T/C (endpoint: mean survival time, dose: 25.0 mg/kg/injection, schedule: Q04DX002 (ip), vehicle: saline): 106 % of control
- T/C [4]: 97 % of control
- T/C [5]: 116 % of control

Compound: COC(=O)C1=C2Nc3ccccc3C23CCN2CC4(CC5CC67CCOC6CCN6CCC8(c9cccc(OC)c9N(C4)C58O)C67)C4OCCC4(C1)C23 (stereo not drawn)
- T/C [22]: 88 % of control
- T/C [23]: 93 % of control

Compound: CCOC(=O)NC1CC2CCC1C2 (stereo not drawn)
- T/C [17]: 110 % of control
- T/C [18]: 103 % of control
- T/C [19]: 103 % of control
- T/C [20]: 103 % of control

Compound: c1cc2c(cc1NC1=NCCO1)CCC2
- T/C [25]: 107 % of control
- T/C [26]: 95 % of control
- T/C [27]: 114 % of control

From PubChem BioAssay AID248 (DTP/NCI, 2004)
